Assay results published in patent US10703764B2, “Benzopiperazine compositions as BET bromodomain inhibitors” (FORMA Therapeutics, Inc., priority 2013, dated 2020).
Like-named read-outs stand apart in the source and are kept apart here.

Columns and labels:
BRD4 BD1 = biological target: T1, BRD4 BD1 (Homo sapiens, UniProt O60885); test: AlphaScreen binding assay, BRD4 Bromodomain 1
T1 construct: made in house
Method in brief: (§1)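 Compound dilution series were mixed with His-tagged BRD4 bromodomain and biotinylated tetra-acetylated H4 (1-21) peptide at pH 7.3 (BD1 and peptide at 50 nM, BD2 and peptide at 100 nM). Donor and acceptor beads were then added, and plates were equilibrated at least 1 h before reading. IC50 values were fitted with a four-parameter logistic model.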

MV4-11 cells = test: Oncology cell growth assay (3-day proliferation, CellTiter-Glo); assay type: cell-based; conditions: Homo sapiens, AML cell line MV4-11, 72 hours, compounds grouped by IC50 range, read-out: MV4-11 IC50 (inhibition of proliferation, gIC50)
Method in brief: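 Compounds were serially diluted 3-fold in DMSO, giving final well concentrations from 10 down to 0.0045 μM. MV4-11 cells were then seeded at 3000 cells/well in RPMI 1640 with 10% FBS and incubated 72 hours. CellTiter-Glo signal was measured and gIC50 obtained by four-parameter logistic regression.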

BRD4 BD2 = biological target: T2, BRD4 BD2 (Homo sapiens, UniProt O60885); test: AlphaScreen binding assay, BRD4 Bromodomain 2
T2 construct: made in house
Method in brief: as §1

COC(=O)N1c2ccc(-c3cnn(CC4(CO)COC4)c3)cc2N(C(=O)OC(C)C)C[C@@H]1C [Example I-630]
IC50 (BRD4 BD1): < 100 nM
IC50 (MV4-11 cells; MV4-11, 72 h): 100 to 500 nM
IC50 (BRD4 BD2): 50 to 500 nM

COC(=O)N1c2ccc(-c3ccc(C(=O)N4CC[C@H](N(C)C)C4)cc3)cc2N(C(=O)OC(C)C)C[C@@H]1C [Example I-567]
IC50 (BRD4 BD1): 100 to 1000 nM
IC50 (MV4-11 cells; MV4-11, 72 h): 100 to 500 nM
IC50 (BRD4 BD2): 50 to 500 nM

CC(=O)N1c2cc(Br)c(-c3ccc(S(C)(=O)=O)cc3)cc2N(C(=O)OC(C)C)C[C@@H]1C [Example I-217, Isopropyl (S)-4-acetyl-6-bromo-3-methyl-7-(4-(methylsulfonyl)phenyl)-3,4-dihydroquinoxaline-1(2H)-carboxylate]
IC50 (BRD4 BD1): 1000 to 10000 nM
IC50 (MV4-11 cells; MV4-11, 72 h): > 500 nM
IC50 (BRD4 BD2): > 500 nM

CC(=O)N1c2ccc(-c3ccc(S(=O)(=O)CC(C)C)cc3)cc2N(C(=O)OC(C)C)C[C@@H]1C [Example I-1081]
IC50 (BRD4 BD1): 1000 to 10000 nM
IC50 (MV4-11 cells; MV4-11, 72 h): > 500 nM
IC50 (BRD4 BD2): 50 to 500 nM

CC(=O)N1c2ccc(-c3ccc(S(C)(=O)=O)cc3)cc2N(C(=O)OCC2CC2)C[C@@H]1C [Example I-495]
IC50 (BRD4 BD1): 100 to 1000 nM
IC50 (MV4-11 cells; MV4-11, 72 h): 100 to 500 nM
IC50 (BRD4 BD2): > 500 nM

CC(=O)N1c2ccc(-c3ccc(S(=O)(=O)N(C)C)c(C)c3)cc2N(C(=O)C2CC2)C[C@@H]1C [Example I-1300]
IC50 (BRD4 BD1): 100 to 1000 nM
IC50 (MV4-11 cells; MV4-11, 72 h): > 500 nM
IC50 (BRD4 BD2): 50 to 500 nM

CC(=O)N1c2ccc(-c3cnn(C4CC4)c3)cc2N(C(=O)Oc2cccc(C(F)(F)F)c2)C[C@@H]1C [Example I-259]
IC50 (BRD4 BD1): 1000 to 10000 nM
IC50 (MV4-11 cells; MV4-11, 72 h): 100 to 500 nM
IC50 (BRD4 BD2): < 50 nM

CC(=O)N1c2ccc(-c3cnn(Cc4c[nH]cn4)c3)cc2N(C(=O)OC(C)C)CC1C (stereo not drawn) [Example I-601]
IC50 (BRD4 BD1): 100 to 1000 nM
IC50 (MV4-11 cells; MV4-11, 72 h): 100 to 500 nM
IC50 (BRD4 BD2): < 50 nM

COC(=O)N1c2ccc(-c3ccc(C(=O)N4CCNCC4)cc3)cc2N(C(=O)OC(C)C)C[C@@H]1C [Example I-559]
IC50 (BRD4 BD1): 100 to 1000 nM
IC50 (MV4-11 cells; MV4-11, 72 h): 100 to 500 nM
IC50 (BRD4 BD2): 50 to 500 nM

CC(=O)N1c2ccc(-c3ccc4c(c3)OCO4)cc2N(C(=O)c2ccco2)C[C@@H]1C [Example I-806]
IC50 (BRD4 BD1): 1000 to 10000 nM
IC50 (MV4-11 cells; MV4-11, 72 h): 100 to 500 nM
IC50 (BRD4 BD2): 50 to 500 nM

CC(=O)N1c2ccc(-c3cnn(C4COC4)c3)cc2N(C(=O)OCC2(F)COC2)C[C@@H]1C [Example I-66, (S)-(3-fluorooxetan-3-yl)methyl 4-acetyl-3-methyl-7-(1-(oxetan-3-yl)-1H-pyrazol-4-yl)-3,4-dihydroquinoxaline-1(2H)-carboxylate]
IC50 (BRD4 BD1): < 100 nM
IC50 (MV4-11 cells; MV4-11, 72 h): 100 to 500 nM
IC50 (BRD4 BD2): < 50 nM

CCOC(=O)N1C[C@H](C)N(C(C)=O)c2ccc(-c3ccc(S(C)(=O)=O)c(F)c3)cc21 [Example I-1084]
IC50 (BRD4 BD1): 1000 to 10000 nM
IC50 (MV4-11 cells; MV4-11, 72 h): > 500 nM
IC50 (BRD4 BD2): 50 to 500 nM

CC(=O)N1c2ccc(-c3ccc4c(c3)CCCN4S(C)(=O)=O)cc2N(C(=O)C2CCC2)C[C@@H]1C [Example I-1158]
IC50 (BRD4 BD1): 100 to 1000 nM
IC50 (MV4-11 cells; MV4-11, 72 h): > 500 nM
IC50 (BRD4 BD2): 50 to 500 nM

CC(=O)N1c2ccc(-c3ccc(NC(=O)N4CCOCC4)cc3)cc2N(C(=O)c2ccco2)C[C@@H]1C [Example I-285]
IC50 (BRD4 BD1): 1000 to 10000 nM
IC50 (MV4-11 cells; MV4-11, 72 h): 100 to 500 nM
IC50 (BRD4 BD2): < 50 nM

CC(=O)N1c2ccc(-c3cnn(C4COC4)c3)cc2N(C(=O)Oc2ccncc2)C[C@@H]1C [Example I-90, (S)-pyridin-4-yl 4-acetyl-3-methyl-7-(1-(oxetan-3-yl)-1H-pyrazol-4-yl)-3,4-dihydroquinoxaline-1(2H)-carboxylate]
IC50 (BRD4 BD1): < 100 nM
IC50 (MV4-11 cells; MV4-11, 72 h): 100 to 500 nM
IC50 (BRD4 BD2): < 50 nM

CC(=O)N1c2ccc(-c3ccc(S(=O)(=O)CCO)cc3)cc2N(C(=O)c2ccco2)C[C@@H]1C [Example I-423]
IC50 (BRD4 BD1): 1000 to 10000 nM
IC50 (MV4-11 cells; MV4-11, 72 h): 100 to 500 nM
IC50 (BRD4 BD2): 50 to 500 nM

CC(=O)N1c2ccc(-c3ccc4scnc4c3)cc2N(C(=O)c2ccco2)C[C@@H]1C [Example I-865]
IC50 (BRD4 BD1): 100 to 1000 nM
IC50 (MV4-11 cells; MV4-11, 72 h): 100 to 500 nM
IC50 (BRD4 BD2): < 50 nM

CC(=O)N1c2ccc(-c3cnn(Cc4ccno4)c3)cc2N(C(=O)C2CC2)C[C@@H]1C [Example I-663]
IC50 (BRD4 BD1): 100 to 1000 nM
IC50 (MV4-11 cells; MV4-11, 72 h): 100 to 500 nM
IC50 (BRD4 BD2): 50 to 500 nM

CC(=O)N1c2ccc(-c3cnn(C4CCC4)c3)cc2N(C(=O)OC2CCCC2)C[C@@H]1C [Example I-25, (S)-cyclopentyl 4-acetyl-7-(1-cyclobutyl-1H-pyrazol-4-yl)-3-methyl-3,4-dihydroquinoxaline-1(2H)-carboxylate]
IC50 (BRD4 BD1): < 100 nM
IC50 (MV4-11 cells; MV4-11, 72 h): < 100 nM
IC50 (BRD4 BD2): < 50 nM

CC(=O)N1c2ccc(-c3cnn(C4CC4)c3)cc2N(C(=O)Oc2ccc(Cl)c3cccnc23)C[C@@H]1C [Example I-1196]
IC50 (BRD4 BD1): 100 to 1000 nM
IC50 (MV4-11 cells; MV4-11, 72 h): 100 to 500 nM
IC50 (BRD4 BD2): 50 to 500 nM

CC(=O)N1c2ccc(-c3ccc(N4CCCS4(=O)=O)c(F)c3)cc2N(C(=O)C2CCC2)C[C@@H]1C [Example I-1154]
IC50 (BRD4 BD1): 1000 to 10000 nM
IC50 (MV4-11 cells; MV4-11, 72 h): > 500 nM
IC50 (BRD4 BD2): 50 to 500 nM

CC(=O)N1c2ccc(-c3cc(Cl)cc(S(C)(=O)=O)c3)cc2N(C(=O)OC2CCCCC2)C[C@@H]1C [Example I-1247]
IC50 (BRD4 BD1): 1000 to 10000 nM
IC50 (MV4-11 cells; MV4-11, 72 h): > 500 nM
IC50 (BRD4 BD2): > 500 nM

COc1ccccc1OC(=O)N1C[C@H](C)N(C(C)=O)c2ccc(-c3cnn(C4CC4)c3)cc21 [Example I-258]
IC50 (BRD4 BD1): 100 to 1000 nM
IC50 (MV4-11 cells; MV4-11, 72 h): < 100 nM
IC50 (BRD4 BD2): < 50 nM

CC(=O)N1c2ccc(-c3cnn(CCC#N)c3)cc2N(C(=O)Oc2ccc(F)cc2)C[C@@H]1C [Example I-1018]
IC50 (BRD4 BD1): < 100 nM
IC50 (MV4-11 cells; MV4-11, 72 h): 100 to 500 nM
IC50 (BRD4 BD2): < 50 nM

CC(=O)N1c2ccc(-c3ccc(C(N)=O)cc3)cc2N(C(=O)c2ccco2)C[C@@H]1C [Example I-810]
IC50 (BRD4 BD1): 100 to 1000 nM
IC50 (MV4-11 cells; MV4-11, 72 h): 100 to 500 nM
IC50 (BRD4 BD2): > 500 nM

CC(=O)N1c2cc(Cl)c(-c3cnn(C4CC4)c3)cc2N(C(=O)OC(C)C)C[C@@H]1C [Example I-208, Isopropyl (S)-4-acetyl-6-chloro-7-(1-cyclopropyl-1H-pyrazol-4-yl)-3-methyl-3,4-dihydroquinoxaline-1 (2H)-carboxylate]
IC50 (BRD4 BD1): 1000 to 10000 nM
IC50 (MV4-11 cells; MV4-11, 72 h): > 500 nM
IC50 (BRD4 BD2): > 500 nM

COC(=O)N1c2ccc(-c3cnn(C4CCNCC4)c3)cc2N(C(=O)Oc2ccc(F)cc2)C[C@@H]1C [Example I-1151]
IC50 (BRD4 BD1): 100 to 1000 nM
IC50 (MV4-11 cells): 100 to 500 nM
IC50 (BRD4 BD2): 50 to 500 nM

CC(=O)N1c2ccc(-c3cc(Cl)cc(S(C)(=O)=O)c3)cc2N(C(=O)OC2CCOCC2)C[C@@H]1C [Example I-1248]
IC50 (BRD4 BD1): 100 to 1000 nM
IC50 (MV4-11 cells; MV4-11, 72 h): 100 to 500 nM
IC50 (BRD4 BD2): > 500 nM

CCOC(=O)N1C[C@H](C)N(C(C)=O)c2ccc(-c3ccc(N4CCCC4=O)cc3)cc21 [Example I-1133]
IC50 (BRD4 BD1): 1000 to 10000 nM
IC50 (MV4-11 cells; MV4-11, 72 h): 100 to 500 nM
IC50 (BRD4 BD2): 50 to 500 nM

CC(=O)N1c2ccc(-c3ccc(N(C)S(C)(=O)=O)cc3)cc2N(C(=O)C2CC2)C[C@@H]1C [Example I-350]
IC50 (BRD4 BD1): 1000 to 10000 nM
IC50 (MV4-11 cells; MV4-11, 72 h): 100 to 500 nM
IC50 (BRD4 BD2): 50 to 500 nM

CC(=O)N1c2ccc(-c3ccc(NS(C)(=O)=O)c(C)c3)cc2N(C(=O)C2CC2)C[C@@H]1C [Example I-1171]
IC50 (BRD4 BD1): 100 to 1000 nM
IC50 (MV4-11 cells; MV4-11, 72 h): 100 to 500 nM
IC50 (BRD4 BD2): 50 to 500 nM

CC(=O)N1c2ccc(-c3cnn(C4CC4)c3)cc2N(C(=O)Oc2ccccc2Cl)C[C@@H]1C [Example I-257]
IC50 (BRD4 BD1): 100 to 1000 nM
IC50 (MV4-11 cells; MV4-11, 72 h): 100 to 500 nM
IC50 (BRD4 BD2): < 50 nM

COC(=O)N1c2ccc(-c3cnn(Cc4cncnc4)c3)cc2N(C(=O)OC(C)C)C[C@@H]1C [Example I-632]
IC50 (BRD4 BD1): 100 to 1000 nM
IC50 (MV4-11 cells; MV4-11, 72 h): 100 to 500 nM
IC50 (BRD4 BD2): 50 to 500 nM
